# Assay results as given in patent publication US20230287061A1, “NEW ANTIMICROBIAL PEPTIDES” (priority 2020, published 2023).
# Ends that are not written are not given here.
# Test system: B. cereus
sequence,measurement,value
ALLKVLFSWFRKHNSRRKNLPAKN [Seq ID no2],MIC,256 µg/mL
